For 29 molecules, Ki results are on record in patent US8530489B2 (Vertex Pharmaceuticals Incorporated, priority 2006, dated 2013).

PLK1, sequence (P53350 whole entry): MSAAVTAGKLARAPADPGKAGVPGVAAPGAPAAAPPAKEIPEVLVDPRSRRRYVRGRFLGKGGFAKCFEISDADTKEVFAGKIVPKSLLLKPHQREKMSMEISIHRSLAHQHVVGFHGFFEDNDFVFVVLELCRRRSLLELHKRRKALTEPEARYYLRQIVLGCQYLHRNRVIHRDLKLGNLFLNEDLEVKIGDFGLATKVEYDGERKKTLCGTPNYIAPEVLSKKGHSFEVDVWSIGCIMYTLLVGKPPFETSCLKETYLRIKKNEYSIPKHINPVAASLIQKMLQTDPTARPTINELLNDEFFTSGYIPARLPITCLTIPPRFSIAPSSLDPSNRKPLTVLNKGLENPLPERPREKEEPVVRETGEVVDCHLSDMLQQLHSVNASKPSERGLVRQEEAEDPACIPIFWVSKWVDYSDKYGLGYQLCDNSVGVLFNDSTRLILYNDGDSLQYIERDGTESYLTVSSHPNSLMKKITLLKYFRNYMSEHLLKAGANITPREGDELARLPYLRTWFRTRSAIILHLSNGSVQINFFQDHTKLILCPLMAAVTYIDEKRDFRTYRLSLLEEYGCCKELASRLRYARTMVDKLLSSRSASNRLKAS

The assay concerns the target PLK1 (Homo sapiens, UniProt P53350). Briefly: PLK1 Inhibition Assay I (radioactive-phosphate incorporation). The following applies: Ki(app); PLK1 Inhibition Assay I or II (table does not say which). In kind it is biochemical. The method, boiled down: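 Ki(app) values came from non-linear regression of initial rates after background subtraction, with phosphopeptide measured by phosphocellulose filter binding and scintillation counting. PLK1 at 2 nM was preincubated with compound (typically from 10 μM, 2-fold dilutions) for 10 min, then run 240 min at 25° C with 350 μM [γ-33P]ATP and 450 μM peptide substrate in HEPES pH 7.5 buffer.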
With `N#Cc1cnc(NC(CO)C2CCOC2)nc1-c1c[nH]c2ncc(C(F)(F)F)cc12` (centres unmarked) [Compound I-104, 2-(2-hydroxy-1-(tetrahydrofuran-3-yl)ethylamino)-4-(5-(trifluoromethyl)-1H-pyrrolo[2,3-b]pyridin-3-yl)pyrimidine-5-carbonitrile], the Ki was > 40 nM.

As for `C[C@@H](Nc1ncc(C#N)c(-c2c[nH]c3ncc(C(F)(F)F)cc23)n1)c1ccc(NC2CCN(C)CC2)nc1` [Compound I-297, 2-((R)-1-(6-(1-methylpiperidin-4-ylamino)pyridin-3-yl)ethylamino)-4-(5-(trifluoromethyl)-1H-pyrrolo[2,3-b]pyridin-3-yl)pyrimidine-5-carbonitrile], the Ki was < 3 nM.

On to `N#Cc1cnc(NC2CCCc3ccccc32)nc1-c1c[nH]c2ncc(C(F)(F)F)cc12` (centres unmarked) [Compound I-34, 2-(1,2,3,4-tetrahydronaphthalen-1-ylamino)-4-(5-(trifluoromethyl)-1H-pyrrolo[2,3-b]pyridin-3-yl)pyrimidine-5-carbonitrile], for which the Ki was > 40 nM.

Regarding `N#Cc1cnc(N[C@@H]2CC3CC[C@@H]2C3)nc1-c1c[nH]c2ncc(C(F)(F)F)cc12` [Compound I-65, 2-((1R,2R)-bicyclo[2.2.1]heptan-2-ylamino)-4-(5-(trifluoromethyl)-1H-pyrrolo[2,3-b]pyridin-3-yl)pyrimidine-5-carbonitrile], the Ki was 3 to 40 nM.

With `C[C@@H](Nc1ncc(C#N)c(-c2c[nH]c3ncc(C(F)(F)F)cc23)n1)C1CCN(C(=O)[C@@H](N)CCCN)CC1` [Compound I-254, 2-((R)-1-(1-((S)-2,5-diaminopentanoyl)piperidin-4-yl)ethylamino)-4-(5-(trifluoromethyl)-1H-pyrrolo[2,3-b]pyridin-3-yl)pyrimidine-5-carbonitrile], the Ki is < 3 nM.

Regarding `COc1ccccc1Sc1ncc(C#N)c(-c2c[nH]c3ncc(C(F)(F)F)cc23)n1` [II-14, 2-(2-methoxyphenylthio)-4-(5-(trifluoromethyl)-1H-pyrrolo[2,3-b]pyridin-3-yl)pyrimidine-5-carbonitrile], the Ki is > 40 nM.

As for `N#Cc1cnc(NCC2(O)CCCCC2)nc1-c1c[nH]c2ncc(C(F)(F)F)cc12` [Compound I-49, 2-((1-hydroxycyclohexyl)methylamino)-4-(5-(trifluoromethyl)-1H-pyrrolo[2,3-b]pyridin-3-yl)pyrimidine-5-carbonitrile], the Ki fell in the range of 3 to 40 nM.

For the molecule `Cc1cnc2[nH]cc(-c3nc(N[C@@H](CO)C(C)C)ncc3C#N)c2c1` [EG8, 2-((R)-1-hydroxy-3-methylbutan-2-ylamino)-4-(5-methyl-1H-pyrrolo[2,3-b]pyridin-3-yl)pyrimidine-5-carbonitrile], the Ki was in the range of 3 to 40 nM.

Regarding `COCC(C)Nc1ncc(C#N)c(-c2c[nH]c3ncc(C(F)(F)F)cc23)n1` (centres unmarked) [Compound I-82, 2-(1-methoxypropan-2-ylamino)-4-(5-(trifluoromethyl)-1H-pyrrolo[2,3-b]pyridin-3-yl)pyrimidine-5-carbonitrile], the Ki is 3 to 40 nM.

With `C[C@@H](Nc1ncc(C#N)c(-c2c[nH]c3ncc(C(F)(F)F)cc23)n1)c1ccc(N[C@H]2CCN(C)C2)nc1` [Compound I-280, 2-(1-(6-((S)-1-methylpyrrolidin-3-ylamino)pyridin-3-yl)ethylamino)-4-(5-(trifluoromethyl)-1H-pyrrolo[2,3-b]pyridin-3-yl)pyrimidine-5-carbonitrile], the Ki is 3 to 40 nM.

Turning to `CC(C)(C)[C@@H](CO)Nc1ncc(C#N)c(-c2c[nH]c3ncc(C(F)(F)F)cc23)n1` [Compound I-111, 2-((S)-1-hydroxy-3,3-dimethylbutan-2-ylamino)-4-(5-(trifluoromethyl)-1H-pyrrolo[2,3-b]pyridin-3-yl)pyrimidine-5-carbonitrile], the Ki is < 3 nM.

For the molecule `CC(C)S(=O)(=O)N1CCC([C@@H](C)Nc2ncc(C#N)c(-c3c[nH]c4ncc(C(F)(F)F)cc34)n2)CC1` [Compound I-213, 2-((R)-1-(1-(isopropylsulfonyl)piperidin-4-yl)ethylamino)-4-(5-(trifluoromethyl)-1H-pyrrolo[2,3-b]pyridin-3-yl)pyrimidine-5-carbonitrile], the Ki was < 3 nM.

For `CC(C)Nc1ncc(C#N)c(-c2c[nH]c3ncc(Nc4ccccc4)cc23)n1` [EG6, 2-(isopropylamino)-4-(5-(phenylamino)-1H-pyrrolo[2,3-b]pyridin-3-yl)pyrimidine-5-carbonitrile], the Ki lay within 3 to 40 nM.

Consider `CC(Nc1ncc(C#N)c(-c2c[nH]c3ncc(C(F)(F)F)cc23)n1)C1CCN(C(=O)N(C)C)CC1` (centres unmarked) [Compound I-157, 4-(1-(5-cyano-4-(5-(trifluoromethyl)-1H-pyrrolo[2,3-b]pyridin-3-yl)pyrimidin-2-ylamino)ethyl)-N,N-dimethylpiperidine-1-carboxamide], for which the Ki is < 3 nM.

In the case of `C[C@@H](Nc1ncc(C#N)c(-c2c[nH]c3ncc(C(F)(F)F)cc23)n1)c1ccc(C(=O)NC2CC2)cc1` [Compound I-171, 4-((1R)-1-(5-cyano-4-(5-(trifluoromethyl)-1H-pyrrolo[2,3-b]pyridin-3-yl)pyrimidin-2-ylamino)ethyl)-N-cyclopropylbenzamide], the Ki was 3 to 40 nM.

As for `CCC(=O)Nc1ccc([C@@H](C)Nc2ncc(C#N)c(-c3c[nH]c4ncc(C(F)(F)F)cc34)n2)cc1` [Compound I-144, N-(4-((1R)-1-(5-cyano-4-(5-(trifluoromethyl)-1H-pyrrolo[2,3-b]pyridin-3-yl)pyrimidin-2-ylamino)ethyl)phenyl)propionamide], the Ki was < 3 nM.

`Cc1ccc(S(=O)(=O)N2CCC(C(C)Nc3ncc(C#N)c(-c4c[nH]c5ncc(C(F)(F)F)cc45)n3)CC2)cc1` (centres unmarked) [Compound I-165, 2-(1-(1-tosylpiperidin-4-yl)ethylamino)-4-(5-(trifluoromethyl)-1H-pyrrolo[2,3-b]pyridin-3-yl)pyrimidine-5-carbonitrile]: the Ki fell in the range of 3 to 40 nM.

For `C[C@@H](Nc1ncc(C#N)c(-c2c[nH]c3ncc(C(F)(F)F)cc23)n1)C1CCNCC1` [Compound I-204, 2-((R)-1-(piperidin-4-yl)ethylamino)-4-(5-(trifluoromethyl)-1H-pyrrolo[2,3-b]pyridin-3-yl)pyrimidine-5-carbonitrile], the Ki lay in the range of 3 to 40 nM.

As to `CCC(CO)Nc1ncc(C#N)c(-c2c[nH]c3ncc(C(F)(F)F)cc23)n1` (centres unmarked) [Compound I-39, 2-(1-hydroxybutan-2-ylamino)-4-(5-(trifluoromethyl)-1H-pyrrolo[2,3-b]pyridin-3-yl)pyrimidine-5-carbonitrile], the Ki is 3 to 40 nM.

With `CC(Nc1ncc(C#N)c(-c2c[nH]c3ncc(C(F)(F)F)cc23)n1)c1ccc(N2CC(O)C2)nc1` (centres unmarked) [Compound I-201, 2-(1-(6-(3-hydroxyazetidin-1-yl)pyridin-3-yl)ethylamino)-4-(5-(trifluoromethyl)-1H-pyrrolo[2,3-b]pyridin-3-yl)pyrimidine-5-carbonitrile], the Ki is < 3 nM.

`CC(Nc1ncc(C#N)c(-c2c[nH]c3ncc(C(F)(F)F)cc23)n1)c1ccc(N2CCC(O)(C3CC3)CC2)nc1` (centres unmarked) [Compound I-195, 2-(1-(6-(4-cyclopropyl-4-hydroxypiperidin-1-yl)pyridin-3-yl)ethylamino)-4-(5-(trifluoromethyl)-1H-pyrrolo[2,3-b]pyridin-3-yl)pyrimidine-5-carbonitrile]: the Ki is 3 to 40 nM.

Turning to `CC(C)N1CCN(c2ccc([C@@H](C)Nc3ncc(C#N)c(-c4c[nH]c5ncc(C(F)(F)F)cc45)n3)cc2)CC1` [Compound I-140, 2-((R)-1-(4-(4-isopropylpiperazin-1-yl)phenyl)ethylamino)-4-(5-(trifluoromethyl)-1H-pyrrolo[2,3-b]pyridin-3-yl)pyrimidine-5-carbonitrile], the Ki was < 3 nM.

For the molecule `COC(=O)N1CCC(C(C)Nc2ncc(C#N)c(-c3c[nH]c4ncc(C(F)(F)F)cc34)n2)CC1` (centres unmarked) [Compound I-152, methyl 4-(1-(5-cyano-4-(5-(trifluoromethyl)-1H-pyrrolo[2,3-b]pyridin-3-yl)pyrimidin-2-ylamino)ethyl)piperidine-1-carboxylate], the Ki is < 3 nM.

For the molecule `COc1cccc(Sc2ncc(C#N)c(-c3c[nH]c4ncc(C(F)(F)F)cc34)n2)c1` [II-11, 2-(3-methoxyphenylthio)-4-(5-(trifluoromethyl)-1H-pyrrolo[2,3-b]pyridin-3-yl)pyrimidine-5-carbonitrile], the Ki is > 40 nM.

Take `N#Cc1cnc(NCCO)nc1-c1c[nH]c2ncc(C(F)(F)F)cc12` [Compound I-109, 2-(2-hydroxyethylamino)-4-(5-(trifluoromethyl)-1H-pyrrolo[2,3-b]pyridin-3-yl)pyrimidine-5-carbonitrile]: the Ki was 3 to 40 nM.

For the molecule `N#Cc1cnc(NC2(C(=O)NCC(F)(F)F)CCCC2)nc1-c1c[nH]c2ncc(Cl)cc12` [IA-7, 1-(4-(5-chloro-1H-pyrrolo[2,3-b]pyridin-3-yl)-5-cyanopyrimidin-2-ylamino)-N-(2,2,2-trifluoroethyl)cyclopentanecarboxamide], the Ki is > 40 nM.

On to `Cc1ccc(C)c(CNc2ncc(C#N)c(-c3c[nH]c4ncc(C(F)(F)F)cc34)n2)c1` [Compound I-60, 2-(2,5-dimethylbenzylamino)-4-(5-(trifluoromethyl)-1H-pyrrolo[2,3-b]pyridin-3-yl)pyrimidine-5-carbonitrile], for which the Ki is 3 to 40 nM.

As to `N#Cc1cnc(NCc2ccccn2)nc1-c1c[nH]c2ncc(C(F)(F)F)cc12` [Compound I-64, 2-(pyridin-2-ylmethylamino)-4-(5-(trifluoromethyl)-1H-pyrrolo[2,3-b]pyridin-3-yl)pyrimidine-5-carbonitrile], the Ki was > 40 nM.

As for `CN1CCC(CNc2ncc(C#N)c(-c3c[nH]c4ncc(C(F)(F)F)cc34)n2)CC1` [Compound I-117, 2-((1-methylpiperidin-4-yl)methylamino)-4-(5-(trifluoromethyl)-1H-pyrrolo[2,3-b]pyridin-3-yl)pyrimidine-5-carbonitrile], the Ki is > 40 nM.
